# Source: publication PMC4020785 (PLoS ONE, 2014)
# Columns and labels:
# PKC [1] = assay: PKC inhibitors on diterpene-induced GFP expression in J-Lat clones 9.2 and 10.6; type: cell-based
# Description: (§1) For analysis of cell surface marker expression, MT-4 cells and bead-selected CD4+ T cells (described above) were incubated with 1 µM of each compound (ING-A, ING-B, ING-C, prostratin, PMA, and bryostatin-1) at 37°C for 48 h. After incubation, cells were washed with PBS and incubated for 20 min at room temperature with antibodies against CD3-Brilliant Violet 510 (clone OKT3 – Biolegend), CD4-Qdot 655 (clone 53.5 - Life Technologies), CXCR4-PE (clone 1265 - BD Biosciences), CCR5-PerCP-Cy5.5 (clone 3A9 - BD Biosciences), CD69-Pacific Blue (clone FN50 – BD Biosciences), CD38-FITC (clone AT-1 – Stem Cell Technologies), CD25-APC (clone 2A3 – BD Biosciences), HLA-DR-Qdot 605 (clone TÜ36 – Life Technologies) and a marker for annexin V-FITC (Life Technologies). Cells (both MT-4 cells and CD4+ T cells) were initially incubated for 2 h with different PKC inhibitors (GÖ6983, GÖ6976 or RO-31-8220). Then, ING-B, prostratin or PMA at 1 µM or TNF-α at 10 ng/mL were added to each condition and incubation was carried out for 24 h at 37°C. Similar protocol was used for the analysis of PKC inhibitors in J-Lat clones 9.2 and 10.6. GFP expression, surface marker expression and activation marker were evaluated on a LSR Fortessa cytometer (BD Biosciences). Data analysis was performed using FlowJo software (Tree Star).
# PKC [2] = assay: PKC inhibitors on ING-B-driven receptor downregulation in CD4+ T lymphocytes; type: cell-based, human; conditions: 0.1 µM inhibitor in the presence of 1 µM ING-B
# Description: as §1
# PKC [3] = assay: PKC inhibitors on ING-B-driven receptor downregulation in MT-4 cells; type: cell-based; conditions: 0.1 µM inhibitor, then 1 µM ING-B 24 h
# Description: as §1
# [4] = test system: HIV-1 clone NL4.3 (subtype B); assay: HIV-1 NL4.3 (subtype B) infection of human PBMCs, Cell Titer Blue readout; type: cell-based
# Description: (§2) Human PMBCs were incubated with 100 U recombinant IL-2 (Sigma-Aldrich) and 5 µg/mL phytohemagglutinin-P (PHA-P) (Difco) for 5 days at 37°C. MT-4 cells (1×10^6) or treated PBMCs (1.2×10^8) were infected with HIV-1 clone NL-4.3 or ZM247Fv-1 (MOI of 0.001) by spinoculation (1200 g at room temperature for 2 h). Uninfected cells were used as negative control and were also subjected to the spinoculation process. After spinoculation, supernatants were discarded and cells were resuspended in 10 mL of R10. Cells from each condition were then added to wells (96-well plate) containing serial dilutions of each ISD. For MT-4 cells, each dilution was done in sextuplicates and, for PBMCs, in triplicates. Cells were also incubated with different concentrations of ZDV as positive control. After 5 days in culture, Cell Titer Blue was added to each well and cells were incubated for additional 24 h. The median effective concentration for each drug is defined as EC50. In parallel with the infectivity assay, the same cell types were treated with different concentrations of drugs to determine their cytotoxicity, following the protocol described above. Drug concentration that results in a 50% decrease in viable cells is defined as the CC50 for each compound. EC50 was calculated according to Spearman-Karber and therapeutic index was defined by the ratio between CC50 and EC50 [55].
# (§3) All statistical analyses were performed using program GraphPism version 6.0. Titrations for TCID50 infectivity were calculated by the Spearman-Karber method. Dose response curves to ISDs with HIV-1 subtype B and C were done using non-linear regression and were fit to the Hill equation.
# [5] = Cytotoxicity (CC50) in MT-4 cells; type: cell-based; conditions: human, Subtype B (X4)
# Description: (§4) Cytotoxicity of ISDs was evaluated in J-Lat (clones 9.2 and 10.6) and PHA-activated human PBMCs. Cells were added to wells in a 96-well plate in the presence of various concentrations of ISDs, PMA or prostratin in sextuplicates for 24 and 72 h. Cell viability was determined using the CellTiter-blue fluorescence Cell Viability Assay (Promega) following the manufacturer's instruction.
# as §2
# HIV LTR in J-Lat clones = assay: LTR-driven GFP expression in J-Lat clones; type: cell-based, HIV-1; conditions: J-Lat clones 9.2 and 10.6, 48 h, all concentrations tested
# Description: J-Lat cells are Jurkat cells stably transfected by an HIV genome whose nef sequence was replaced by the GFP gene. Also, a frameshift mutation was introduced to the env gene to prevent virus spread. […] To test the ISDs, a million cells of each clone were treated with different concentrations of each compound (ING-A, ING-B, ING-C, prostratin and PMA) at 37°C. TNF-α (10 ng/mL) was used as a positive control. After 48 h, cells were collected, washed with saline solution (PBS) and GFP expression was evaluated in a FACScalibur cytometer (BD Biosciences). Data were analyzed with Cell Quest Pro software (BD Biosciences).
# [6] = test system: HIV-1 clone ZM247Fv-1 (subtype C); assay: HIV-1 ZM247Fv-1 (subtype C) infection of human PBMCs, Cell Titer Blue readout; type: cell-based
# Description: as §2, §3
# [7] = Cytotoxicity (CC50) in human PBMCs; type: cell-based; conditions: human PBMCs activated with IL-2 and PHA-P; Human PBMC, Subtype C (R5)
# Description: as §4, §2
# [8] = test system: HIV-1 clone ZM247Fv-1 (subtype C); assay: HIV-1 ZM247Fv-1 (subtype C) infection of MT-4 cells, Cell Titer Blue readout; type: cell-based
# Description: as §2, §3
# [9] = test system: HIV-1 clone NL4.3 (subtype B); assay: HIV-1 NL4.3 (subtype B) infection of MT-4 cells, Cell Titer Blue readout; type: cell-based
# Description: as §2, §3
# [10] = test system: HIV-1 p24 in J-Lat clones; assay: HIV-1 p24 production in J-Lat clones (ELISA); type: cell-based
# Description: (§5) ACH-2 and J1.1 are clonal cell lines derived from CEM [52] and Jurkat cells, respectively, after infection with HIV-1. U1 cells were derived from the human promonocyte cell line U937 and chronically infected with HIV-1 [54]. Each cell line (1×10^6 cells) was incubated in the presence of 1 µM of diterpenes (ING-A, ING-B, ING-C, prostratin and PMA) or 10 ng/mL TNF-α for 48 h at 37°C. After incubation, cells were centrifuged and supernatants were collected for the quantitation of gag p24 antigen by ELISA, following the protocol described by the manufacturer (Perkin Elmer).
# To assess whether the GFP expression levels induced by ISDs in J-Lats led to viral production, all five clones were stimulated with 1 µM of each compound for 48 h and production of HIV-1 p24 was measured in the culture supernatant by ELISA. Levels of p24 were proportional to GFP expression in clones 6.3 and 9.2, whereas levels in clone 8.4 were lower when compared to GFP (Figure 3A).
# CD4+ T lymphocytes = assay: Activation markers CD25, CD38, HLA-DR, CD69 on CD4+ T lymphocytes (cytometry); type: cell-based, human; conditions: 1 µM
# Description: For analysis of cell surface marker expression, MT-4 cells and bead-selected CD4+ T cells (described above) were incubated with 1 µM of each compound (ING-A, ING-B, ING-C, prostratin, PMA, and bryostatin-1) at 37°C for 48 h. […] Cells (both MT-4 cells and CD4+ T cells) were initially incubated for 2 h with different PKC inhibitors (GÖ6983, GÖ6976 or RO-31-8220). Then, ING-B, prostratin or PMA at 1 µM or TNF-α at 10 ng/mL were added to each condition and incubation was carried out for 24 h at 37°C. […] GFP expression, surface marker expression and activation marker were evaluated on a LSR Fortessa cytometer (BD Biosciences). Data analysis was performed using FlowJo software (Tree Star).
# [11] = test system: CD4, CXCR4, CCR5 on CD4+ T lymphocytes; assay: Surface CD4, CXCR4, CCR5 expression in CD4+ T lymphocytes (cytometry); type: cell-based, human; conditions: CD4+ lymphocytes, 1 µM
# Description: as §1
# [12] = test system: CD4, CXCR4, CCR5 on MT-4 cells; assay: Surface CD4, CXCR4, CCR5 expression in MT-4 cells (cytometry); type: cell-based; conditions: 1 µM
# Description: as §1
# ACH-2 cells = assay: gag p24 production in ACH-2 cells (ELISA); type: cell-based, HIV-1; conditions: ACH-2, 1 µM, 48 h
# Description: as §5
# HIV-1 latency = test system: HIV-1 latency; design: method as in PMID 15284245; conditions: statement in discussion, reference given only in the next sentence; cited from earlier work
# [13] = Human immunodeficiency virus 1, PBMC
# [14] = Human immunodeficiency virus 1, MT4
structure (smiles),measurement,setting,value
Cn1cc(C2=C(c3cn(CCCSC(=N)N)c4ccccc34)C(=O)NC2=O)c2ccccc21 [RO-31-8220],reduction of ING-B-driven GFP expression,PKC [1]; discussion statement,75%
same,GFP expression reduced to,"PKC [1]; pre-incubation with 0.1 µM inhibitor, response to ISDs, prostratin and PMA",75%
same,overexpression of CD4 and CCR5 compared to untreated control,PKC [2],up to 2.5 fold
same,effect on ING-B-driven receptor downregulation,PKC [3],not able to downregulate the expression of CD4 and CXCR4
"CCCCCCCCCCCC(=O)O[C@H]1C(C)=C[C@]23C(=O)[C@@H](C=C(CO)[C@@H](O)[C@]12O)[C@H]1[C@@H](C[C@H]3C)C1(C)C [ING-C, ingenol-3-dodecanoate]",TI (CC50/EC50),"[4]; Human PBMC, Subtype B (X4)",730.7
same,EC50,[4]; [13],52 nM
same,CC50 at 5 days,[5],27000 nM
same,"levels of GFP expression, rank order",HIV LTR in J-Lat clones,PMA = ING-B > ING-A = ING-C > prostratin
same,TI (CC50/EC50),"[6]; Human PBMC, Subtype C (R5)",413
same,EC50,[6]; [13],92 nM
same,CC50 at 5 days,[7],38000 nM
same,EC50,[8]; [14],36 nM
same,TI (CC50/EC50),"[8]; MT-4 cells, Subtype C (R5)",750
same,EC50,[9]; [14],41 nM
same,TI (CC50/EC50),"[9]; MT-4 cells, Subtype B (X4)",658.5
"CC(=O)O[C@@]12C[C@@H](C)[C@@]3(O)[C@@H](C=C(CO)C[C@]4(O)C(=O)C(C)=C[C@@H]34)[C@@H]1C2(C)C [prostratin, 12-deoxyphorbol 13-acetate]",p24 in culture supernatant,"[10]; J-Lat clone 15.4, 1 µM, 48 h",does not appear to work
same,"HIV-LTR activation, overall comparison","[10]; J-Lat clones, GFP and p24 taken together",the less effective compound among all tested
same,CD25 surface expression,CD4+ T lymphocytes,upregulated
same,HLA-DR surface expression,CD4+ T lymphocytes,not by prostratin
same,downregulation of surface CCR5,[11],less efficient in downregulating surface expression of CCR5
same,downregulation of surface CD4 and CXCR4 (in words),[12],not by prostratin and bryostatin-1
same,"levels of GFP expression, rank order",HIV LTR in J-Lat clones,PMA = ING-B > ING-A = ING-C > prostratin
same,p24 production (in words),ACH-2 cells,low levels of p24 production
same,concentration required to reactivate HIV-1 latency,HIV-1 latency,higher than 2 µM
CCC/C=C/C=C/C(=O)O[C@H]1/C(=C/C(=O)OC)C[C@H]2C[C@H]([C@@H](C)O)OC(=O)C[C@H](O)C[C@@H]3C[C@H](OC(C)=O)C(C)(C)[C@](O)(C[C@@H]4C/C(=C/C(=O)OC)C[C@H](/C=C/C(C)(C)[C@]1(O)O2)O4)O3 [bryostatin-1],downregulation of surface CCR5,[11],less efficient in downregulating surface expression of CCR5
same,downregulation of surface CD4 and CXCR4 (in words),[12],not by prostratin and bryostatin-1
Cn1c2ccccc2c2c3c(c4c5ccccc5n(CCC#N)c4c21)C(=O)NC3 [GÖ6976],effect on ISD induction of GFP expression,PKC [1]; 0.1 µM inhibitor,little effect
same,effect on ING-B-driven receptor downregulation,PKC [3],little effect on blocking receptor downregulation
